Reference: PubChem BioAssay AID1361 (SRMLSC, 2008)
Active and inactive are the calls of the source. How the calls were made is not given here.

Experiment: blockers of mitochondrial fusion, WT vs mutant – cell-based, chemical genetic, wild-type and mutant, confirmation (AID 1361)
Conditions: Cell-based mitochondrial fusion phenotype, imaging
[1] = mutant cells, measured here: mutant cell line IC50

SMILES | IC50 (WT cells) | IC50 [1] [µM]
CC(C)Nc1nc(Oc2cccc(Cl)c2Cl)cc(C(F)(F)F)n1 | 23.6 µM | > 25
CCC(C)c1ccc(NC(=S)Nc2ccc(OC)c(OC)c2)cc1 (centres undefined) | > 25 µM (inactive) | > 25
COC(=O)c1ccc(/C=C(\C#N)c2nc3ccccc3s2)cc1 | > 25 µM (inactive) | > 25
O=C(c1csc(Nc2ccccc2Cl)n1)N1CCCC1 | > 25 µM (inactive) | > 25
CC1=CC(C)(C)N(S(=O)(=O)c2ccc(C)cc2)c2cc(C)ccc21 | 11.1 µM | > 25
COc1ccc(C(C)(C)C)cc1NC(=O)c1cncc(Br)c1 | > 25 µM (inactive) | > 25
Cc1ccc(N(CC(O)Cn2c3ccccc3c3ccccc32)S(C)(=O)=O)c(C)c1 (centres undefined) | 18.8 µM | > 25
CCCCc1cc2c(s1)CCCC/C2=N/O | > 25 µM (inactive) | > 25
COc1ccc(-n2cc(-c3ccccc3)c3c(N4CC(C)OC(C)C4)ncnc32)cc1 (centres undefined) | 21.5 µM | > 25
Cc1ccc(Cl)cc1N1CCN(CC(=O)NC2CCCc3ccccc32)CC1 (centres undefined) | 11.6 µM | 23.7
Cc1[nH]c2ccccc2c1/C=N/NC(=O)C1CC1(c1ccccc1)c1ccccc1 (centres undefined) | 7.93 µM | > 25
COc1ccc(OC)c(NC(=O)COC(=O)Cc2ccc(Br)cc2)c1 | > 25 µM (inactive) | > 25
O=C(CCc1nc(-c2ccccc2)no1)NCCc1ccccc1 | > 25 µM (inactive) | > 25
CC1CC(C)(C)N2C(=O)C3(Nc4ccccc4S3)c3cccc1c32 (centres undefined) | > 25 µM (inactive) | > 25
C=CCn1c(C)c(C(C)=O)c(N2CCN(C(c3ccccc3)c3ccccc3)CC2)nc1=S | 13.3 µM | > 25
O=C(COc1ccccc1-c1ccccc1)NCc1cccc(Cl)c1 | 15 µM | > 25
O=C(Nc1ccccc1Sc1ccccc1)c1ccc(F)cc1 | > 25 µM (inactive) | > 25
CCOc1ccc2c(c1)C(C)=CC(C)(C)N2S(=O)(=O)c1ccc(C)cc1 | 13.7 µM | 23.2
CS(=O)(=O)N(Cc1cc2ccccc2[nH]c1=O)C1CCCCC1 | > 25 µM (inactive) | > 25
Cc1coc(C)c1C(=O)CC1(O)C(=O)Nc2cc(Cl)cc(Cl)c21 (centres undefined) | > 25 µM (inactive) | > 25
O=C(NC(=S)Nc1ccc(S(=O)(=O)NC2CCCCC2)cc1)c1cccs1 | 17.6 µM | > 25

SMILES | IC50 (WT cells) | IC50 [1] [µM]
O=C(CSCc1cccc(Cl)c1)Nc1ccccc1-c1ccccc1 | 12.1 µM | > 25
COC(=O)c1c(NC(=O)CN2CCC3(O)CCCCC3C2c2ccccc2OC)sc(C)c1C (centres undefined) | 10.4 µM | > 25
COc1ccccc1NC(=O)CC1S/C(=N/N=C2\CCCc3ccccc32)NC1=O (centres undefined) | 19.6 µM | > 25
Cc1cc(CC(C)C)n(-c2nc3ccccc3c(=O)n2OCc2ccccc2)n1 | > 25 µM (inactive) | > 25
O=C(N/N=C/c1cccc(F)c1)c1cc(-c2ccco2)nc2ccccc12 | > 25 µM (inactive) | > 25
CCOP(=O)(OCC)c1nc(/C=C/c2ccccc2)oc1NCc1ccccc1 | > 25 µM (inactive) | > 25
O=C(/C(=N\O)n1cncn1)c1ccc(Br)cc1Br | > 25 µM (inactive) | > 25
Cc1ccc(CNCC(O)(c2ccccc2)c2ccc(Cl)cc2)cc1 (centres undefined) | 18.7 µM | 24.9
Cc1ccc2cc(CN(C(=O)c3ccco3)c3ccccc3C)c(=O)[nH]c2c1 | > 25 µM (inactive) | > 25
Cc1ccc(-c2cc(-c3ccccc3)c(C#N)c(N)n2)o1 | > 25 µM (inactive) | > 25
CCCCN(CCCC)CCNC(=O)Cc1nc2c(c(=O)[nH]c(=O)n2C)n1C | > 25 µM (inactive) | > 25
CCS(=O)(=O)Nc1cccc(-c2cc(-c3ccccc3)c3cc(C)ccc3n2)c1 | 6.46 µM | > 25
Cc1ccc(/C(=N\O)c2oc3c(C)c4oc(=O)cc(C)c4cc3c2C)cc1 | 7.3 µM | > 25
Oc1ccc(/C=N/Nc2nc(N3CCCCCC3)nc(N3CCCCCC3)n2)c(O)c1 | 9.5 µM | > 25
C=CCOc1ccc2ccccc2c1CNCCCN1CCOCC1 | > 25 µM (inactive) | > 25
CS(=O)(=O)N1CCc2cc(C(=O)N3CCOCC3)ccc21 | > 25 µM (inactive) | > 25
CC(C)C(=O)Nc1cc(S(=O)(=O)Nc2ccc(Cl)cc2)ccc1Cl | 22 µM | > 25
O=C(O)C1CCCCC1C(=O)Nc1ccc(F)cc1F (centres undefined) | > 25 µM (inactive) | > 25
CC(C)(C)NC(=O)NC(=O)COC(=O)Cc1coc2ccc3ccccc3c12 | 21.2 µM | > 25
CSCc1nnc(NC(=O)c2ccc(S(=O)(=O)N(CC(C)C)CC(C)C)cc2)o1 | > 25 µM (inactive) | > 25
O=C(CC(Nc1ccc(F)cc1)c1ccccc1)c1ccccc1 (centres undefined) | 16.5 µM | > 25

SMILES | IC50 (WT cells) | IC50 [1] [µM]
CCOC1(OCC)C(c2ccc(Cl)cc2)C(C#N)(C#N)C1(OCC)OCC (centres undefined) | 11.5 µM | > 25
Cc1cccc(C(=O)NC(C(=O)Nc2nc(-c3ccccn3)cs2)C(C)C)c1 (centres undefined) | 20.8 µM | > 25
Cc1cc(Oc2cnn(C(C)(C)C)c(=O)c2Cl)cc(C(C)C)c1 | 16.9 µM | > 25
COc1cc(OC)cc(C(=O)N2CCC(n3c(C)nc4cc(F)ccc43)CC2)c1 | > 25 µM (inactive) | > 25
Cc1nc(N2CCCCC2)c2c(C)c(C(=O)Nc3ccccc3C(F)(F)F)sc2n1 | > 25 µM (inactive) | > 25
CN(C)c1ccc(O)c2c1CC1CC3[C@@H](N(C)C)C(=O)C(C(N)=O)=C(O)[C@]3(O)C(=O)C1=C2O (some centres undefined) | > 25 µM (inactive) | > 25
Cc1cc(C)cc(NC(=S)NC2CC3CCC(C2)N3Cc2ccco2)c1 (centres undefined) | > 25 µM (inactive) | > 25
Cc1ccc(-c2nc3cc(Br)cnc3nc2-c2ccc(C)cc2)cc1 | 9.24 µM | > 25
CC1CCCCN1C(=O)Cn1cc(/C=C2/C(=O)Nc3ccccc32)c2ccccc21 (centres undefined) | 24.4 µM | > 25
CCCOP(=O)(OCCC)C(Nc1ccc(C(C)C)cc1)c1ccc([N+](=O)[O-])cc1 (centres undefined) | 13.1 µM | > 25
COc1ccccc1Nc1ncnc2nc[nH]c12 | > 25 µM (inactive) | > 25
COc1ccc(/C=C/C(=O)c2ccc(O)cc2)cc1COc1ccc(F)cc1 | 11.9 µM | > 25
CCOC(=O)C1=C(CC)Nc2ccccc2N/C1=N\S(=O)(=O)c1ccc2ccccc2c1 | 11 µM | > 25
CCc1cc2c(=O)c(-c3cscn3)coc2cc1O | > 25 µM (inactive) | > 25
CC1(C)CC(=O)c2c(O)cc(OCc3ccc([N+](=O)[O-])cc3)cc2O1 | > 25 µM (inactive) | > 25
NC(=O)c1ccc(N2CCCCC2)c(N2C(=O)C3CC=CCC3C2=O)c1 (centres undefined) | > 25 µM (inactive) | > 25
COc1cccc(NC(=S)N(CCc2c(C)[nH]c3ccccc23)Cc2ccco2)c1 | 15.6 µM (inactive) | > 12.5
COc1ccccc1-n1c(SCC(=O)c2ccc(O)cc2O)nc2cc([N+](=O)[O-])ccc21 | 6.02 µM | > 25
CSc1nnc(C2CCNCC2)n1C | > 25 µM (inactive) | > 25
CCCCCC(=O)O[C@]1(C(C)=O)CC[C@H]2[C@@H]3CCC4=CC(=O)CC[C@]4(C)[C@H]3CC[C@@]21C | 12.7 µM | > 25
COC(=O)c1cn(C(=O)OC)c2ccccc12 | > 25 µM (inactive) | > 25

SMILES | IC50 (WT cells) | IC50 [1] [µM]
Cc1cccc(OCC(=O)Nc2nc3ccc([N+](=O)[O-])cc3s2)c1C | > 25 µM (inactive) | > 25
CCOC(=O)c1ccc2c(c1)n(CC)c(/C=C/N(C)c1ccccc1)[n+]2CC | > 25 µM (inactive) | > 25
CC(C)=CCc1c2c(c3occ(-c4ccc(O)cc4)c(=O)c3c1O)C=CC(C)(C)O2 | 24.7 µM | > 25
CCc1ccc2ncc(S(=O)(=O)c3ccc(C)c(C)c3)c(N3CCCC3)c2c1 | 14.6 µM | > 25
C=CCn1c(SCC(=O)Nc2cccc(C(=O)OC)c2)nnc1C(C)NC(=O)c1cccs1 (centres undefined) | > 25 µM (inactive) | > 25
CCOc1ccccc1N1CCN(C(=S)NC(=O)C23CC4CC(CC(C4)C2)C3)CC1 | 19.5 µM | 22.5
CCOC(=O)/C(=C\c1ccc(OC(F)F)cc1)C1=Nn2c(nnc2-c2ccc(Cl)cc2)SC1 | 10.8 µM | > 25
O=C(COC(=O)CCCOc1ccc(Cl)cc1Cl)Nc1cccc(Cl)c1 | 24 µM (inactive) | 22.8
O=C(Nc1nnc(C2CC2)s1)c1cc(-c2ccccc2)nn1-c1ccccc1 | 8.41 µM | 17
CCCCSc1nnc(-c2ccc(C)cc2)c2ccccc12 | 9.57 µM | 23.1
Cc1ccc(OCCSc2nc(NC(C)C)nc(NC(C)C)n2)cc1 | 12.3 µM | > 25
CCCn1c2c(c(O)c(C(=O)Nc3nccs3)c1=O)CCCC2 | 12.7 µM | > 25
Clc1ccc2ncc(-c3nnnn3-c3ccccc3)c(-c3ccccc3)c2c1 | 15.7 µM | > 25
CCc1cc(-c2n[nH]c(=S)n2CC(C)C)cs1 | > 25 µM (inactive) | > 25
CCCOc1ccc(C2C(C(=O)c3ccco3)=C(O)C(=O)N2CCN2CCOCC2)cc1OC (centres undefined) | > 25 µM (inactive) | > 25
O=C(C1CCCCC1)N(Cc1ccccc1)c1ccccn1 | > 25 µM (inactive) | > 25
CCc1cccc(CC)c1NC(=S)NCCc1c(C)[nH]c2ccc(C)cc12 | 9.59 µM | > 25
COc1ccc2nc(NC(=O)CN(c3ccc(C)cc3)S(=O)(=O)c3c(C)nn(C)c3C)sc2c1 | 16 µM | > 25
c1ccc(-c2csc3ncnc(N4CCc5ccccc5C4)c23)cc1 | 9.44 µM | > 25
